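Step 1: Grow cells in 96-well plates. Step 2: Expose to compound for 48 hours at 5 concentrations. Step 3: Interpolate endpoints linearly; if unreached, use highest concentration. GI50 is the concentration that inhibits growth by half.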 The source made the active and inactive calls. Rule as the data show it: active = GI50 up to about 1.1 µM and inactive = higher.
How the values were obtained:
Test in all cases: DTP human tumour cell line panel, 48 h
DU-145 = tested on: DU-145
ACHN = tested on: ACHN
SF-295 = tested on: SF-295
A549 = tested on: A549
OVCAR-8 = tested on: OVCAR-8
OVCAR-3 = tested on: OVCAR-3
MOLT-4 = tested on: MOLT-4
SF-268 = tested on: SF-268
HOP-92 = tested on: HOP-92
IGROV-1 = tested on: IGROV-1
786-0 = tested on: 786-0
SK-OV-3 = tested on: SK-OV-3
KM12 = tested on: KM12
A498 = tested on: A498
MDA-MB-435 = tested on: MDA-MB-435
M14 = tested on: M14
NCI/ADR-RES = tested on: NCI/ADR-RES
COLO 205 = tested on: COLO 205
SK-MEL-2 = tested on: SK-MEL-2
U-251 = tested on: U-251

Measured: GI50

CCOC(=O)c1nc2ccc(C(F)(F)F)cc2nc1Nc1ccc(OC)c(OC)c1
inactive: DU-145 > 100 µM | ACHN 44.1 µM | SF-295 > 100 µM | A549 > 100 µM | OVCAR-8 > 100 µM | OVCAR-3 > 100 µM | MOLT-4 > 100 µM | SF-268 78.2 µM | HOP-92 65.2 µM | IGROV-1 > 100 µM | 786-0 26.5 µM | SK-OV-3 60 µM | KM12 > 100 µM | A498 > 100 µM | MDA-MB-435 > 100 µM | M14 > 100 µM | NCI/ADR-RES > 100 µM | COLO 205 > 100 µM

CNC1=Nc2ccccc2C(=S)N2CSC[C@@H]12
inactive: DU-145 > 100 µM | ACHN > 100 µM | SF-295 > 100 µM | A549 > 100 µM | OVCAR-8 > 100 µM | OVCAR-3 > 100 µM | MOLT-4 > 100 µM | SF-268 > 100 µM | HOP-92 50.9 µM | SK-MEL-2 > 100 µM | 786-0 > 100 µM | SK-OV-3 > 100 µM | KM12 > 100 µM | A498 > 100 µM | MDA-MB-435 > 100 µM | M14 > 100 µM | NCI/ADR-RES > 100 µM | U-251 > 100 µM | COLO 205 > 100 µM

Cc1c(-c2ccccn2)ccc2ccccc12
inactive: DU-145 > 100 µM | ACHN 52.7 µM | SF-295 83.8 µM | A549 69.5 µM | OVCAR-8 26.4 µM | OVCAR-3 41.4 µM | MOLT-4 90.2 µM | SF-268 54 µM | HOP-92 23 µM | 786-0 77.3 µM | SK-OV-3 > 100 µM | KM12 82.8 µM | A498 > 100 µM | MDA-MB-435 48.5 µM | M14 > 100 µM | NCI/ADR-RES 45.9 µM | U-251 93.5 µM | COLO 205 41.4 µM

Fc1ccc(OCc2nc3cc(C(F)(F)F)ccc3nc2-c2ccccc2)cc1
inactive: DU-145 > 100 µM | ACHN > 100 µM | SF-295 > 100 µM | A549 > 100 µM | OVCAR-8 > 100 µM | OVCAR-3 > 100 µM | MOLT-4 13.2 µM | SF-268 > 100 µM | HOP-92 > 45.3 µM | IGROV-1 > 100 µM | SK-MEL-2 > 100 µM | 786-0 > 100 µM | KM12 > 100 µM | A498 > 100 µM | MDA-MB-435 > 63.8 µM | M14 > 94 µM | NCI/ADR-RES 98.2 µM | U-251 > 100 µM | COLO 205 > 100 µM

O=[N+]([O-])c1cc2c(cc1/C=N/n1c(CO)nc3ccccc31)OCO2
inactive: DU-145 > 100 µM | ACHN > 100 µM | SF-295 > 100 µM | A549 > 100 µM | OVCAR-8 > 100 µM | OVCAR-3 > 100 µM | MOLT-4 > 100 µM | SF-268 > 100 µM | HOP-92 > 100 µM | SK-MEL-2 > 100 µM | 786-0 > 100 µM | SK-OV-3 > 100 µM | KM12 > 100 µM | A498 > 100 µM | MDA-MB-435 > 100 µM | M14 > 100 µM | NCI/ADR-RES > 100 µM | U-251 > 100 µM | COLO 205 > 100 µM

NS(=O)(=O)c1nnc(NC(=O)/C=C/C(=O)O)s1
inactive: DU-145 > 100 µM | ACHN > 100 µM | SF-295 > 100 µM | A549 > 100 µM | OVCAR-8 > 100 µM | OVCAR-3 > 100 µM | MOLT-4 > 100 µM | SF-268 > 100 µM | HOP-92 > 100 µM | SK-MEL-2 > 100 µM | 786-0 > 100 µM | SK-OV-3 > 100 µM | KM12 > 100 µM | A498 > 100 µM | MDA-MB-435 > 100 µM | M14 > 100 µM | NCI/ADR-RES > 100 µM | U-251 > 100 µM | COLO 205 > 100 µM

CCN(CC)CCNc1nc2ccc([N+](=O)[O-])cc2[n+]([O-])n1
inactive: DU-145 34.2 µM | ACHN 36.8 µM | SF-295 32.1 µM | A549 21.1 µM | OVCAR-8 13.5 µM | OVCAR-3 30.3 µM | MOLT-4 18.9 µM | SF-268 41 µM | HOP-92 32 µM | IGROV-1 15.7 µM | SK-MEL-2 15.2 µM | 786-0 20.1 µM | KM12 26.2 µM | A498 28.4 µM | MDA-MB-435 16.1 µM | M14 16.2 µM | NCI/ADR-RES 24.3 µM | U-251 21.9 µM | COLO 205 2.84 µM

NC1=C(N2CCCCC2)C(=O)NC2=N/C(=C\c3ccccc3)C(=O)N21
inactive: DU-145 > 100 µM | ACHN > 100 µM | SF-295 > 100 µM | A549 > 100 µM | OVCAR-8 > 100 µM | MOLT-4 62.1 µM | SF-268 > 100 µM | HOP-92 > 100 µM | IGROV-1 > 100 µM | 786-0 > 100 µM | SK-OV-3 > 100 µM | KM12 > 100 µM | A498 > 100 µM | MDA-MB-435 > 100 µM | M14 > 100 µM | NCI/ADR-RES > 100 µM | U-251 > 100 µM | COLO 205 > 100 µM

CC1(C)C2CCC3=C(CCC4(C)C5C[C@](C)(C(=O)O)CC[C@]5(C)CC[C@]34C)[C@@]2(C)CC[C@@H]1O (some centres undefined)
inactive: DU-145 18.3 µM | ACHN 12.1 µM | A549 13.1 µM | OVCAR-3 15.9 µM | MOLT-4 15.8 µM | SF-268 31.2 µM | HOP-92 18.6 µM | IGROV-1 24.2 µM | 786-0 15.9 µM | SK-OV-3 20.2 µM | KM12 15.4 µM | A498 26.5 µM | MDA-MB-435 23.7 µM | M14 17.5 µM | NCI/ADR-RES 17.9 µM | U-251 13.1 µM | COLO 205 38.3 µM

Cc1c/c(=N/NC(=O)c2ccncc2)n2nc(N)sc2n1
inactive: DU-145 > 100 µM | ACHN > 100 µM | SF-295 > 100 µM | A549 > 100 µM | OVCAR-8 > 100 µM | OVCAR-3 > 100 µM | MOLT-4 > 100 µM | HOP-92 > 100 µM | IGROV-1 > 100 µM | SK-MEL-2 > 100 µM | 786-0 > 100 µM | SK-OV-3 > 100 µM | KM12 > 100 µM | A498 > 100 µM | MDA-MB-435 > 100 µM | M14 > 100 µM | NCI/ADR-RES > 100 µM | U-251 > 100 µM | COLO 205 > 100 µM

O=C(NCCO)Nc1c(C(F)(F)F)cc(-c2ccccc2)[nH]c1=O
inactive: DU-145 > 100 µM | ACHN > 100 µM | SF-295 > 100 µM | A549 > 100 µM | OVCAR-8 > 100 µM | OVCAR-3 > 100 µM | MOLT-4 > 100 µM | HOP-92 > 100 µM | IGROV-1 > 100 µM | SK-MEL-2 > 100 µM | 786-0 > 100 µM | SK-OV-3 > 100 µM | KM12 > 100 µM | A498 > 100 µM | MDA-MB-435 > 100 µM | M14 > 100 µM | NCI/ADR-RES > 100 µM | U-251 > 100 µM | COLO 205 > 100 µM

Source: ChEMBL document CHEMBL1201862, “PubChem BioAssay data set” (2004)
